Experimental data taken from the NIST ThermoML archive (doi:10.1016/j.tca.2004.08.013).

Assay: xn = mol fraction of the nth substance listed
Conditions: 101.3 kPa, Liquid

CCCCNCCCC [dibutylamine] + ClC(Cl)(Cl)Cl
Conditions	mass density, 303.15 K [kg/m3]	mass density, 313.15 K [kg/m3]	viscosity, 303.15 K [mPa·s]	viscosity, 313.15 K [mPa·s]
x1 = 0.0105	1560.01	1540.58	0.852	0.761
x1 = 0.0201	1546.59	1527.31	0.851	0.76
x1 = 0.0298	1533.23	1514.26	0.85	0.761
x1 = 0.0396	1519.86	1501.14	0.85	0.76
x1 = 0.049	1507.12	1488.59	0.849	0.759
x1 = 0.0583	1494.77	1476.4	0.847	0.757
x1 = 0.0696	1480	1461.9	0.846	0.755
x1 = 0.0789	1467.95	1450.12	0.845	0.754
x1 = 0.089	1455.15	1437.55	0.845	0.752

CCCCN [1-butanamine] + ClC(Cl)(Cl)Cl
Conditions	mass density, 303.15 K [kg/m3]	mass density, 313.15 K [kg/m3]	viscosity, 303.15 K [mPa·s]	viscosity, 313.15 K [mPa·s]
x1 = 0.0099	1566.74	1547.13	0.855	0.763
x1 = 0.0183	1559.88	1540.41	0.858	0.765
x1 = 0.0287	1551.36	1532.01	0.861	0.768
x1 = 0.0386	1543.06	1523.9	0.862	0.77
x1 = 0.0477	1535.31	1516.18	0.862	0.773
x1 = 0.0581	1526.57	1507.58	0.864	0.776
x1 = 0.0675	1518.67	1499.84	0.866	0.78
x1 = 0.076	1511.52	1492.72	0.869	0.784
x1 = 0.0856	1503.49	1484.69	0.871	0.786

CCN(CC)CC [triethylamine] + CCC(C)=O
303.15 K
Conditions	mass density [kg/m3]	viscosity [mPa·s]
x1 = 0.011	798.96	0.362
x1 = 0.0217	798.22	0.36
x1 = 0.0315	797.6	0.357
x1 = 0.0413	796.87	0.355
x1 = 0.0508	796.32	0.353
x1 = 0.0597	795.5	0.351
x1 = 0.0697	794.8	0.347
x1 = 0.0801	794.25	0.344
x1 = 0.0915	793.37	0.341
x1 = 0.1022	792.79	0.338

CCCCN(CCCC)CCCC [tributylamine] + ClC(Cl)Cl
Conditions	mass density, 303.15 K [kg/m3]	mass density, 313.15 K [kg/m3]	viscosity, 303.15 K [mPa·s]	viscosity, 313.15 K [mPa·s]
x1 = 0.0102	1450.1	1428.49	0.533	0.479
x1 = 0.0205	1430.19	1409.15	0.545	0.488
x1 = 0.0308	1410.92	1390.4	0.557	0.496
x1 = 0.0404	1393.58	1373.58	0.569	0.504
x1 = 0.0505	1376.08	1356.5	0.583	0.513
x1 = 0.0598	1360.44	1341.35	0.593	0.522
x1 = 0.0695	1344.77	1326.07	0.606	0.529
x1 = 0.0799	1328.42	1310.05	0.615	0.538
x1 = 0.0856	1319.72	1301.56	0.621	0.545
